Activity calls are given as the source filed them. No cut-off for these calls is given here.
Columns and labels:
Human adenovirus 5 [1] = assay: Antiviral activity against HAdV5 infected in 293beta5 cells assessed as inhibition of plaque formation at 10 uM after 7 days by GFP reporter gene assay relative to control; assay type: functional; details: Human mastadenovirus C, 293beta5, 168 h
Human adenovirus 5 [2] = assay: Antiviral activity against HAdV5 infected in human A549 cells assessed as inhibition of viral entry at 50 uM preincubated for 45 mins followed by cell addition measured after 48 hrs by GFP reporter gene assay relative to control; assay type: functional; details: Human mastadenovirus C
[3] = Cytotoxicity against human A549 cells assessed as cell viability after 48 hrs by Alamar blue assay; assay type: cell-based
Human adenovirus 5 [4] = assay: Antiviral activity against HAdV5 infected in 293beta5 cells assessed as inhibition of plaque formation after 7 days by GFP reporter gene assay; assay type: functional, organism-based; details: for IC50: Human mastadenovirus C, 293beta5, 168 h
[5] = Antiviral activity against HAdV16 infected in 293beta5 cells assessed as inhibition of plaque formation after 7 days by GFP reporter gene assay; assay type: functional, cell-based, Human adenovirus 16; details: Human mastadenovirus B, 293beta5, 168 h
[6] = Selectivity index, ratio of CC50 for human A549 cells to IC50 for inhibition of HAdV5 plaque formation in 293beta5 cells; assay type: functional
[7] = Selectivity index, ratio of CC50 for human A549 cells to IC50 for inhibition of HAdV16 plaque formation in 293beta5 cells; assay type: functional
Human adenovirus 5 [8] = assay: Antiviral activity against HAdV5 infected in human A549 cells assessed as inhibition of viral genome entry in nucleus by measuring nuclear associated viral DNA level at 50 uM after 45 mins by real time PCR method (reference value: 78.55 +/- 1.37%); assay type: functional; set-up: scale not given: the % may be the effect or the level left
Human adenovirus 5 [9] = assay: Antiviral activity against HAdV5 infected in human A549 cells assessed as reduction in viral yield at 50 uM after 48 hrs by virus burst size assay relative to control; assay type: functional
[10] = Antiviral activity against HAdV16 infected in human A549 cells assessed as reduction in viral yield at 50 uM after 48 hrs by virus burst size assay relative to control; assay type: functional, Human adenovirus 16
Human adenovirus 5 [11] = assay: Antiviral activity against HAdV5 infected in human A549 cells assessed as inhibition of viral DNA replication at 50 uM after 24 hrs by quantitative real time PCR method relative to control; assay type: functional; details: Human mastadenovirus C, A549, 24 h
A549 = assay: Effect on GAPDH gene expression in human A549 cells at 50 uM after 24 hrs by quantitative real time PCR method; assay type: ADME, cell-based; details: a549, 24 h
Human adenovirus 5 [12] = assay: Antiviral activity against HAdV5 assessed as inhibition of E1A mRNA transcription measured 6 hrs post infection; assay type: functional, organism-based
Human adenovirus 5 [13] = assay: Antiviral activity against HAdV5 infected in human A549 cells assessed as inhibition of viral entry preincubated for 45 mins followed by cell addition measured after 48 hrs by GFP reporter gene assay; assay type: functional, organism-based; details: for IC50: Human mastadenovirus C

SMILES | inhibition at 10 µM (Human adenovirus 5 [1]) [%] | inhibition at 50 µM (Human adenovirus 5 [2]) [%] | CC50 at 48 h [3] [µM] | inhibition (Human adenovirus 5 [4]) | IC50 (Human adenovirus 5 [4]) [µM] | IC50 [5] [µM] | Ratio CC50/IC50 [6] | Ratio CC50/IC50 [7] | Activity (Human adenovirus 5 [8]) [%] | fold change (FC) (Human adenovirus 5 [9]) | fold change (FC) [10] | inhibition at 50 µM (Human adenovirus 5 [11]) [%] | Activity (A549) | inhibition (Human adenovirus 5 [12]) | inhibition (Human adenovirus 5 [13]) | IC50 (Human adenovirus 5 [13]) [µM]
O=C(c1cc2ccccc2o1)N1CCN(C(=O)Nc2ccccc2[N+](=O)[O-])C(c2ccccc2)C1 (stereo unspecified) | 100 | 38 | 132 | Dose-dependent effect | 2.5 | 2.3 | 53.3 | 57.3 | 79.26 | 34.5 | 46.5 | 73.1 | Non-toxic |  |  | 
N#Cc1ccc(NC(=O)N2CCN(C(=O)c3cc4ccccc4o3)CC2c2ccccc2)cc1 (stereo unspecified) | 98 | 63 | 200 | Dose-dependent effect | 4.7 | 3.9 | 42.7 | 51.2 | 81.05 | 16.9 | 60.9 | 88.5 | Non-toxic |  |  | 
O=C(c1cc2ccccc2o1)N1CCN(C(=O)Nc2cc(C(F)(F)F)ccc2Cl)C(c2ccccc2)C1 (stereo unspecified) | 97 | 30 | 131 | Dose-dependent effect | 1.1 | 1.8 | 116.2 | 72.7 | 85 | 60.3 | 33.2 |  |  | inactive |  | 
CC(C)(C)OC(=O)N1CCN(C(=O)Nc2ccc([N+](=O)[O-])cc2)C(c2ccccc2)C1 (stereo unspecified) | 96 | 80 | 161 | Dose-dependent effect | 3.4 | 4.8 | 47.3 | 33.6 | 77.96 | 211.7 | 265.5 | 80.7 | Non-toxic |  | Dose-dependent effect | 32.5
O=C(c1cc2ccccc2o1)N1CCN(C(=O)Nc2ccc(Cl)cc2)C(c2ccccc2)C1 (stereo unspecified) | 100 | 33 | 194 | Dose-dependent effect | 2.5 | 3.4 | 79 | 56.9 | 77.71 | 9.9 | 27.4 | 78.9 | Non-toxic |  |  | 
O=C(c1cc2ccccc2o1)N1CCN(C(=O)Nc2ccc([N+](=O)[O-])cc2)C(c2ccccc2)C1 (stereo unspecified) | 100 | 84 | 194 | Dose-dependent effect | 2.1 | 3.5 | 93.5 | 55.4 | 77.99 | 35.7 | 34.6 | 80.9 | Non-toxic |  | Dose-dependent effect | 26.7
